According to patent US10716783B2, “Prolylhydroxylase/ATF4 inhibitors and methods of use for treating neural cell injury or death and conditions resulting therefrom” (CORNELL UNIVERSITY, priority 2013, dated 2020):
“Also recorded” adds a separate entry of the source. Read-outs that look alike come from different tables or passages of the source.

Assays:
[1] = target: recombinant HIF PHD2 (Homo sapiens, UniProt Q9GZT9); test: Recombinant HIF PHD2 hydroxylation of HIF peptide, non-denaturing mass spectrometry; assay type: biochemical
recombinant HIF PHD2, sequence (Q9GZT9 whole entry, the tested form may be a part): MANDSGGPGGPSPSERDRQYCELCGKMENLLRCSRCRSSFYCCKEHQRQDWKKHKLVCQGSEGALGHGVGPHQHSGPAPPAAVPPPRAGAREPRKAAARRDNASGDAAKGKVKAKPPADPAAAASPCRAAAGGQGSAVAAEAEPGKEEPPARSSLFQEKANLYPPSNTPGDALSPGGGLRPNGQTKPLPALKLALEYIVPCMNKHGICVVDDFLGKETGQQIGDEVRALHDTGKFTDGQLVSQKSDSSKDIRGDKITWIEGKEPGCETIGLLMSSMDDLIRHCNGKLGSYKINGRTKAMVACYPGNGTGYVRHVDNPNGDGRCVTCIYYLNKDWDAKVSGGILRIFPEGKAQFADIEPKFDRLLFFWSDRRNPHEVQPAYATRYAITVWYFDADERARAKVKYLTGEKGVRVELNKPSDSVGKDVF
Description: (§1) FIGS. 3A-3G. Validation of adaptoquin as a novel HIF PHD inhibitor. […] Under steady state conditions, activity of HIF PHD2 with its co-substrate 2-oxoglutarate involves two peaks that represent non-hydroxylated and hydroxylated peptide. The hydroxylated peptide disappears in the presence of HIF PHD2 inhibition by adaptoquin. […] The reporter contains the ODD domain of HIF-1 which confers HIF PHD regulated stability on it. It is expressed in all cells of the body, but is destabilized in the absence of HIF PHD inhibition and stabilized in its presence. Quantitative measurements confirm stability of the ODD-luc in brain, kidney and liver (FIGS. 3D and 3E.).
(§2) To verify that the changes in light in the brain reflect parenchymal changes in ODD-luciferase levels rather than increases in changes in skin or dural ODD-luciferase, ODD-luciferase activity was measured normalized to total protein in lysates from distinct brain regions using a luminometer.

[2] = system: primary neurons; test: Death induced by forced ATF4 expression in primary neurons (MTT, LIVE/DEAD); assay type: cell-based; conditions: concentrations protective in the oxidative stress model
Description: FIGS. 6A-6I. […] Expression of ATF4 was forced into primary neurons, which induces death of these neurons by MTT assay (FIG. 6D) or LIVE/DEAD staining, Green is live, Red is dead (FIG. 6E).

[3] = system: intracerebral hemorrhage (autologous blood infusion); test: Autologous blood infusion ICH in rats; assay type: in vivo
Description: (§3) FIGS. 4A-4N. Adaptoquin delivered post-injury reduces cell death and enhances functional recovery post injury in mice and rats. Adaptoquin's effects in mice are not associated with global shifts of iron out of the brain. FIG. 4A: Experimental design for schedule of delivery of adaptaquin post-ICH. 30 mg/kg was delivered post-injury and then daily for seven days during which behavioral analysis was done. Mice were sacrificed at day 7 for qPCR and Fluoro-jade staining. […] FIG. 4J: Protocol for adaptoquin treatment of rats with ICH. ICH is modeled by autologous blood infusion and not collagenase in these studies. Behavior is tracked by a single pellet reaching task out to 28 days, but the schedule of infusion is similar to what is used in mice-2 hrs post blood infusion and then daily out to seven days. Behavior is monitored before, from 9-11 days and from 25-28 days. […] FIG. 4L: Protocol for evaluating the total concentrations of iron and zinc in brain following ICH in vehicle and adaptoquin treated mice. FIGS. 4M, 4N: Pseudocolored sections of collagenase induced ICH in mice after 7 days. […] These studies are consistent with the notion that adaptoquin works by inhibiting a specific metalloenzyme rather than global movement of metal ions.
To determine whether adaptoquin could ameliorate outcomes using a distinct model of ICH in a distinct species, adaptoquin was tested it (30 mg/kg, intraperitoneal) in a model of autologous blood infusion in rats. Autologous blood infusion causes a narrower slit like lesion in the striatum than collagenase, but results in motor impairments out beyond 30 days. Adaptoquin (30 mg/kg) was administered two hours after autologous blood infusion and then daily for seven days.

[4] = system: HIF PHDs; test: ODD-luciferase reporter mice, in vivo bioluminescence imaging and tissue lysates; conditions: for ODD-luciferase activity in brain: in vivo bioluminescence imaging, intraperitoneal; for ODD-luciferase activity in lysates from different brain regions: normalized to total protein, luminometer
Description: as §1
To identify HIF PHD inhibitors suitable for testing in ICH, the experiment first sought to identify which of the known HIF PHD inhibitors could penetrate the blood brain barrier to inhibit HIF PHD activity in the CNS. To monitor HIF PHD activity dynamically, the experiment utilized mice that had previously been engineered to ubiquitously express the oxygen degradation domain (ODD) of HIF-1α fused to firefly luciferase. The ODD domain contains proline 402 and 564, which are hydroxylated by the HIF PHDs to degrade HIF-1 or the ODD-luciferase. Accordingly, these mice have been used previously to track HIF PHD activity in diverse organs in vivo using in vivo bioluminescence imaging.
as §2

[5] = system: HIF-1 protein; test: HIF-1 protein stabilisation in primary neurons (Western blot); assay type: cell-based; conditions: FIG. 6H, 6I
Description: FIGS. 1A-1L: Structurally diverse HIF PHD inhibitors stabilize HIF-1 and abrogate toxicity induced by hemin, a byproduct of blood breakdown, in cortical neurons hippocampal neuroblasts and striatal neuroblasts (not shown). […] FIGS. 6A-6I. […] Expression of ATF4 was forced into primary neurons, which induces death of these neurons by MTT assay (FIG. 6D) or LIVE/DEAD staining, Green is live, Red is dead (FIG. 6E).

[6] = system: ATF4; test: ATF4 hydroxylation (ATF4 immunoprecipitation, hydroxyproline immunoblot); assay type: cell-based
[7] = system: intracerebral hemorrhage (collagenase into the striatum); test: Collagenase-induced ICH in mice; assay type: in vivo; conditions: for Corner task (spatial neglect): 30 mg/kg i.p. 2 h post collagenase then daily for seven days; for Tape removal task (sensory neglect): 1 and 3 days post ICH; for Neuronal degeneration (Fluoro-jade staining), striatum hematoma and perihematomal area: day 7
Description: as §3, with “ions. To determine whether HIF PHD inhibition after ICH can improve behavioral outcomes, 30 mg/kg of adaptoquin was delivered to the peritoneum of mice two hours following the injection of collagenase into the striatum. An identical dose of adaptoquin (30 mg/kg) was given daily for seven days. […] These molecular deletion and pharmacological inhibition studies supported HIF PHDs as targets for therapy post ICH, but left unanswered the mechanism by which adaptoquin could abrogate neuronal death. A first prediction of the model was that adaptoquin enhances functional recovery without affecting total brain iron levels. Total iron levels were monitored in brain sections from vehicle- and adaptoquin-treated (30 mg/kg) mice seven days following ICH.” for “ions.”

Oc1cccnc1NC(c1ccc(Cl)cc1)c1ccc2cccnc2c1O (centres unmarked) [adaptoquin]
Inhibition of recombinant HIF PHD2 activity (hydroxylation of HIF peptide) [1]: inhibit the ability of recombinant HIF prolyl hydroxylase 2 to hydroxylate an HIF peptide | Inhibition of recombinant HIF PHD2 activity (hydroxylation of HIF peptide) ([1]; listed as Adpatoquin): inhibits activity of recombinant HIF PHD2 | Death induced by oxidative stress and ATF4 forced expression [2]: mitigates death induced by oxidative stress and ATF4 forced expression | Body weight ([3]; 30 mg/kg i.p.): no significant changes | Glucose levels ([3]; 30 mg/kg i.p.): no significant changes | Temperature ([3]; 30 mg/kg i.p.): no significant changes | Single pellet reaching task (percent correct) ([3]; 30 mg/kg i.p. 2 h after blood infusion then daily for seven days, later time points): significant improvements in percent correct; also recorded: improves single pellet reaching | Message levels of p21 waf1/cip1 in brain ([4]; adaptoquin 30 mg/kg): increased message levels of p21 waf1/cip1 | ODD-luciferase activity in brain ([4]; adaptoquin 30 mg/kg): significantly increase ODD-luciferase levels and activity | ODD-luciferase activity in brain ([4]; adaptoquin 30 mg/kg, listed as Adaptoquin): inhibits the HIF PHDs in brain in a dose dependent fashion | ODD-luciferase activity in lysates from different brain regions [4]: An increase in activity | ODD-luciferase activity in lysates from different brain regions ([4]; listed as Adaptoquin): dose dependent increases throughout the brain | HIF-1 stabilisation relative to protective concentration [5]: stabilizes HIF-1 at concentrations higher than that required for full protection | ATF4 hydroxylation [6]: inhibits ATF4 hydroxylation | Corner task (spatial neglect) [7]: significantly normalized | Corner task (spatial neglect) ([7]; listed as Adaptoquin): corrects behavioral deficits | Tape removal task (sensory neglect) ([7]; 30 mg/kg i.p.): significant improvement | Tape removal task (sensory neglect) ([7]; 30 mg/kg i.p., listed as Adaptoquin): corrects behavioral deficits | Hematoma size ([7]; 30 mg/kg i.p., at 24 hours): no difference | Edema ([7]; 30 mg/kg i.p., at three days): did decrease edema | Neuronal degeneration (Fluoro-jade staining), striatum hematoma and perihematomal area ([7]; 30 mg/kg i.p.): reduction in the number of degenerating neurons | Neuronal degeneration (Fluoro-jade staining), striatum hematoma and perihematomal area ([7]; 30 mg/kg i.p., listed as Apatoquin): significantly reduces neuronal degeneration | p21 expression ([7]; 30 mg/kg post-ICH then daily for seven days, qPCR day 7): induced p21 expression
